From ChEMBL document CHEMBL4052749, “Selective inhibitors of human mPGES-1 from structure-based computational screening” (Bioorg Med Chem Lett, 2017)

Experiments:
[1] = molecular target: T1, Prostaglandin E synthase (Homo sapiens) (UniProt O14684); experiment: Inhibition of human mPGES-1 expressed in 293-F cells using PGH2 as substrate preincubated for 15 mins followed by substrate addition measured after 30 secs at 10 uM by enzyme immunoassay
T1 sequence (whole entry): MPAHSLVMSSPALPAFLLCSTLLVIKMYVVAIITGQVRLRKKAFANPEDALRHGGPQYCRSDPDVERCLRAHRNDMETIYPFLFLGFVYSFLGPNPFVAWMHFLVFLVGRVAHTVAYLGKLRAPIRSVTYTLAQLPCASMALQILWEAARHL

Prostaglandin E synthase = molecular target: T2, Prostaglandin E synthase (Homo sapiens, UniProt O14684); experiment: Inhibition of human mPGES-1 expressed in 293-F cells using PGH2 as substrate preincubated for 15 mins followed by substrate addition measured after 30 secs enzyme immunoassay; type: cell-based
T2 sequence (O14684 whole entry): T1 sequence (whole entry)

[2] = tested on: COX1/COX2 (ovine COX1, human COX2; the isoform is not stated for the values); experiment: Inhibition of ovine COX1/human COX2 assessed as reduction in PGH2 production by measuring PGF2alpha at 100 uM using PG-acetylcholinesterase as tracer by colorimetry; conditions: ovine COX1/human COX2 enzymes
[3] = Inhibition of ovine COX1/human COX2 assessed as reduction in PGH2 production by measuring PGF2alpha using PG-acetylcholinesterase as tracer by colorimetry

Row | SMILES | inhibition [1] [%] | also measured
1 | C[C@@H]1c2c(cc(OC(=O)c3cccc(S(=O)(=O)F)c3)nc2OC(=O)c2cccc(S(=O)(=O)F)c2)C(=O)N1Cc1ccccc1 | 15 | 
2 | CCOc1ccc(NC(=S)N2CCC(CCCC3CCN(C(=S)Nc4ccc(OCC)cc4)CC3)CC2)cc1 | 59 | 
3 | S=C(Nc1ccccc1)N1CCC(CCCC2CCN(C(=S)Nc3ccccc3)CC2)CC1 | 53 | 
4 | O=C(C[C@H](c1ccc2c(c1)OCO2)N1CCN([C@H](CC(=O)c2ccc(Br)cc2)c2ccc3c(c2)OCO3)CC1)c1ccc(Br)cc1 | 50 | 
5 | Cc1ccc(NC(=S)N2CCC(CCCC3CCN(C(=S)Nc4ccc(C)cc4C)CC3)CC2)c(C)c1 | 49 | 
6 | CC[n+]1ccc(Nc2ccc(NC(=O)c3ccc(Nc4cc[n+](CC)c5ccc([N+](=O)[O-])cc45)cc3)cc2)cc1 | 70 | 
7 | Cc1cc(NS(=O)(=O)c2ccc(/N=N/c3cc(/N=N/c4ccc(S(=O)(=O)Nc5cc(C)nc(C)n5)cc4)c4c(NC(=O)C(Cl)Cl)cccc4c3OC(=O)C(Cl)Cl)cc2)nc(C)n1 | 46 | 
8 | O=C(Nc1cccc2c(OC(=O)C(Cl)Cl)c(/C=C/c3ccc(S(=O)(=O)Nc4nccs4)cc3)cc(/N=N/c3ccc(S(=O)(=O)Nc4nccs4)cc3)c12)C(Cl)Cl | 10 | 
9 | CCCCCCCCCCCC(=O)Nc1ccc(SSc2ccc(NC(=O)CCCCCCCCCCC)cc2)cc1 | 70 | 
10 | O=C(Nc1ccc(Cl)cc1)Nc1nnc(-c2cccc(-c3nnc(NC(=O)Nc4ccc(Cl)cc4)o3)c2)o1 | 59 | 
11 | CCCCCCCCCCCCc1ccc(NC2=C(Cl)C(=O)C(Nc3ccc(CCCCCCCCCCCC)cc3)=C(Cl)C2=O)cc1 | 49 | 
12 | CN(Cc1ccc(Cl)cc1)C(=O)NCCCCCCNC(=O)N(C)Cc1ccc(Cl)cc1 | 64 | 
13 | O=C(N/N=C\c1ccccc1/C=N\NC(=O)Nc1ccc(/N=N/c2ccccc2)cc1)Nc1ccc(/N=N/c2ccccc2)cc1 | 71 | 
14 | CCOC(=O)CC(=O)c1cn(CCCOC(=O)CCCCCCCCC(=O)OCCCn2cc(C(=O)CC(=O)OCC)c(=O)[nH]c2=O)c(=O)[nH]c1=O | 48 | 
15 | Cc1ccccc1NC(=O)/C(Cc1nc2ccc(C(=O)c3ccccc3)cc2nc1O)=N\NC(=O)c1ccncc1 | 94 | IC50 (Prostaglandin E synthase): 664 nM; inhibition at 100 µM [2]: 0%
16 | O=P1(N(CCCl)CCCl)N(Cc2ccc(Cl)c(Cl)c2)CCCN1Cc1ccc(Cl)c(Cl)c1 | 65 | 
17 | N#C[C@@H](c1ccccc1)N(CCCCCCN(C(=O)c1ccccc1)[C@@H](C#N)c1ccccc1)C(=O)c1ccccc1 | 40 to 44 | 
18 | Cn1c2ccccc2c(=S)c2cc(NC(=O)CCCCC(=O)Nc3ccc4c(c3)c(=S)c3ccccc3n4C)ccc21 | 25 | 
19 | CCCCOc1ccc(NC(=S)Nc2ccc(N(C)C)cc2)cc1 [THIAMBUTOSINE] | 99 | IC50 (Prostaglandin E synthase): 370 nM; inhibition at 100 µM [2]: 1%
20 | O=[N+]([O-])c1ccc(N/N=C(\C=C\c2ccc3c(c2)OCO3)c2cnc(Nc3ccc(Cl)c(Cl)c3)s2)c([N+](=O)[O-])c1 | 98 | IC50 (Prostaglandin E synthase): 284 nM; inhibition at 100 µM [2]: 8%

Row | SMILES | inhibition [1] [%] | also measured
21 | C[n+]1ccc(Nc2ccc(NC(=O)c3ccc(Nc4cc[n+](C)c5ccc(N)cc45)cc3N)cc2)cc1 | 30 | 
22 | CC(=O)O[C@H]1CC[C@]2(C)C3C[C@@]4(C)C(CCC4[C@@H](C)CCCC(C)C)C[C@]3(C#N)n3c(=O)n(-c4ccccc4)c(=O)n3[C@]2(C#N)C1 (some centres undefined) | 99 | IC50 (Prostaglandin E synthase): 276 nM; inhibition at 100 µM [2]: 14%
23 | COc1ccc(C(=O)COC(=O)[C@H](C[Se][Se]C[C@H](NC(=O)c2ccc(Br)cc2F)C(=O)OCC(=O)c2ccc(OC)cc2)NC(=O)c2ccc(Br)cc2F)cc1 | 65 | 
24 | O=[N+]([O-])c1ccc(CSc2ncc(Br)c(SCc3ccc([N+](=O)[O-])cc3)n2)cc1 | 26 | 
25 | Cc1noc(NS(=O)(=O)c2ccc(/N=N/c3cc(/N=N/c4ccc(S(=O)(=O)Nc5onc(C)c5C)cc4)c4c(NC(=O)C(Cl)Cl)cccc4c3OC(=O)C(Cl)Cl)cc2)c1C | 43 | 
26 | O=C(Nc1ccccc1)c1cc(S(=O)(=O)Nc2n[nH]c(=O)[nH]2)c(SSc2cc(Cl)c(C(=O)Nc3ccccc3)cc2S(=O)(=O)Nc2n[nH]c(=O)[nH]2)cc1Cl | 59 | 
27 | O=C(C(=O)c1ccc(/N=C/c2ccc(N(CCCl)CCCl)cc2)cc1)c1ccc(/N=C/c2ccc(N(CCCl)CCCl)cc2)cc1 | 28 | 
28 | CC(=O)N[C@H]1[C@@H](OCc2ccccc2)O[C@H](CO)[C@H](O)[C@@H]1C[C@H](C)C(=O)N[C@@H](C)C(=O)N[C@H](CCC(=O)OCCNc1c2ccccc2nc2cccc([N+](=O)[O-])c12)C(N)=O | 37 | 
29 | O=C(OCCN(CCOC(=O)c1ccccc1)C(=O)N(CCOC(=O)c1ccccc1)CCOC(=O)c1ccccc1)c1ccccc1 | 46 | 
30 | COc1ccc(N(Nc2ccc(Br)cc2)c2ccccc2N(Nc2ccc(Br)cc2)c2ccccc2OC)cc1 | 100 | IC50 (Prostaglandin E synthase): 889 nM; IC50 [3]: > 100000 nM; inhibition at 100 µM [2]: 37%
31 | CC(C)C(=O)OCC(C)(C)[C@H](OC(=O)COc1ccc(Cl)cc1Cl)C(C)C | 69 | 
32 | CC/C(=C(/CC)c1ccc(Oc2nc(N3CC3)nc(N3CC3)n2)cc1)c1ccc(Oc2nc(N3CC3)nc(N3CC3)n2)cc1 | 46 | 
33 | COc1ccc2nc3cc(Cl)ccc3c(SCC(=O)Nc3ccccc3-c3ccccc3NC(=O)CSc3c4ccc(Cl)cc4nc4ccc(OC)cc34)c2c1 | 57 | 
34 | O=c1oc2ccccc2n1P(=O)(N1CCOCC1)N1CCOCC1 | 29 | 
35 | CC1=NN(C(=O)CC(=O)Nc2ccccc2C)C(=O)[C@@H]1/C=N/c1ccc(S(=O)(=O)c2ccc(/N=N/[C@@H]3C(=O)N(C(=O)CC(=O)Nc4ccccc4C)N=C3C)cc2)cc1 | 36 | 
36 | CC(C)(C)OC(=O)N[C@H](Cc1ccc(OCc2ccccc2)cc1)C(=O)N[C@H](CCCCNC(=O)OCc1ccccc1)C(=O)ON1C(=O)CCC1=O | 32 | 
37 | Cc1ccc(NC(=O)c2cc(S(=O)(=O)Nc3n[nH]c(=O)[nH]3)c(SSc3cc(Cl)c(C(=O)Nc4ccc(C)cc4)cc3S(=O)(=O)Nc3n[nH]c(=O)[nH]3)cc2Cl)cc1 | 47 | 
38 | N#Cc1cccc(C2C(=O)c3c(c(-c4ccccc4)c(-c4ccc(Sc5ccc(-c6c(-c7ccccc7)c7c(c(-c8ccccc8)c6-c6ccccc6)C(=O)N(c6cccc(C#N)c6)C7=O)cc5)cc4)c(-c4ccccc4)c3-c3ccccc3)C2=O)c1 (centres undefined) | 100 | IC50 (Prostaglandin E synthase): 439 nM; inhibition at 100 µM [2]: 9%
39 | CC(C)(C)c1cc(OCc2nnc3sc(-c4ccc(Cl)cc4)nn23)c(Cl)cc1OCc1nnc2sc(-c3ccc(Cl)cc3)nn12 | 75 | IC50 (Prostaglandin E synthase): 917 nM; inhibition at 100 µM [2]: 15%
